This is an account of results in US9474790B2, “Stable, protracted GLP-1/glucagon receptor co-agonists for medical use” (Novo Nordisk A/S, priority 2013, dated 2016).

Numbered stars: 1 amine (or outer) side, 2 acyl side, 3 side chain; on linkers, the order of the positions; unused ones are H or OH. Bridge positions count the residues as written; N and C are the ends. Square brackets hold non-standard residues; d marks the D form. Side chains are listed from the residue outwards. Peptide text beside a SMILES is read from it. I, II: the chains in the order shown. * marks the point of attachment. C18 diacid = O=C(O)CCCCCCCCCCCCCCCCC(=O)*; γGlu = O=C(O)[C@H](CCC(=O)[*:2])N[*:1]; Ac4c = NC1(C(=O)O)CCC1; AEEA = NCCOCCOCC(=O)O; Aib = CC(C)(N)C(=O)O

Usually IC50 stands for the concentration needed to halve the response being measured.

For the assay, the target named is T1, human GLP-1 receptor (Homo sapiens, UniProt P43220).
T1 construct: expressed in transfected cells; host or cells: BHK cells (parent BHKTS13), clone FCW467-12A/KZ10-1, with CRE luciferase
T1 sequence (P43220 24-463): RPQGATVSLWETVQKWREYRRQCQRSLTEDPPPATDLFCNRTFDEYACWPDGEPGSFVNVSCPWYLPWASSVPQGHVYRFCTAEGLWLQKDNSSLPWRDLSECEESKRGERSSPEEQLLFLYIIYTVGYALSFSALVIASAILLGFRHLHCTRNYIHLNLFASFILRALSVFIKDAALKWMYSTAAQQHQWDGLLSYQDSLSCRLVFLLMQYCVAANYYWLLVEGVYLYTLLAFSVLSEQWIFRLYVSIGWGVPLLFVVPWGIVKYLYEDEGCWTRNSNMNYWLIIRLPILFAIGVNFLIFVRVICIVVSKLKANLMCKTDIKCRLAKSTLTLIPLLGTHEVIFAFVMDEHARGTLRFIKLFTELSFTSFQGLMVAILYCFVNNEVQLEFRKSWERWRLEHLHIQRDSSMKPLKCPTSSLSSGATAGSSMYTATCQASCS
Kind of assay: GLP-1 receptor binding, 125I-GLP-1 displacement SPA on isolated membranes. To be noted: displacement of 125I-GLP-1 from membranes; read-out: IC50 GLP-1R. Summed up: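 Test derivatives, serially diluted, competed with 125I-GLP-1(7-36)NH2 for the human GLP-1 receptor on BHK membranes, read by WGA-bead scintillation proximity after 2 h at 30°C, pH 7.4 HEPES/EGTA/MgCl2 buffer. Final serum albumin was either ≤0.001% or 2.0%; IC50 from non-linear fit.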
In general terms: Displacement assays read how much labelled ligand stays bound in the presence of the test substance.
For `CC(C)C[C@H](NC(=O)[C@H](Cc1ccc(O)cc1)NC(=O)[C@H](CCCCN)NC(=O)[C@H](CO)NC(=O)[C@H](CC(C)C)NC(=O)[C@H](CC(=O)O)NC(=O)[C@H](CO)NC(=O)[C@@H](NC(=O)[C@H](Cc1ccccc1)NC(=O)[C@@H](NC(=O)CNC(=O)[C@H](Cc1c[nH]cn1)NC(=O)C(C)(C)NC(=O)[C@@H](N)Cc1c[nH]cn1)[C@@H](C)O)[C@@H](C)O)C(=O)N[C@@H](CCC(=O)O)C(=O)N[C@@H](CO)C(=O)N[C@@H](CCCNC(=N)N)C(=O)N[C@@H](CCCNC(=N)N)C(=O)N[C@@H](C)C(=O)N[C@@H](CCCNC(=N)N)C(=O)N[C@@H](CCC(=O)O)C(=O)N[C@@H](Cc1ccccc1)C(=O)N[C@H](C(=O)N[C@@H](CCC(N)=O)C(=O)N[C@@H](Cc1c[nH]c2ccccc12)C(=O)N[C@@H](CC(C)C)C(=O)N[C@@H](CC(C)C)C(=O)N[C@@H](CCCCNC(=O)CC[C@H](NC(=O)CC[C@H](NC(=O)COCCOCCNC(=O)COCCOCCNC(=O)CC[C@H](NC(=O)CCCCCCCCCCCCCCCCC(=O)O)C(=O)O)C(=O)O)C(=O)O)C(=O)N[C@H](C(N)=O)[C@@H](C)O)C(C)C` [Example 33, N^ε28-[(4S)-4-carboxy-4-[[(4S)-4-carboxy-4-[[2-[2-[2-[[2-[2-[2-[[(4S)-4-carboxy-4-(17-carboxyheptadecanoylamino)butanoyl]amino]ethoxy]ethoxy]acetyl]amino]ethoxy]ethoxy]acetyl]amino]butanoyl]amino]butanoyl]-[Aib2,His3,Leu10,Glu15,Arg20,Glu21,Leu27,Lys28]-Glucagon amide] (H-H[Aib]HGTFTSDLSKYLESRRAREFVQWLLK([γGlu-γGlu-AEEA-AEEA-γGlu-C18 diacid])T-NH2; N-terminus assumed), the IC50 is 0.6 nM.

For `CC(C)C[C@H](NC(=O)[C@H](Cc1ccc(O)cc1)NC(=O)[C@H](CCCCN)NC(=O)[C@H](CO)NC(=O)[C@H](CC(C)C)NC(=O)[C@H](CC(=O)O)NC(=O)[C@H](CO)NC(=O)[C@@H](NC(=O)[C@H](Cc1ccccc1)NC(=O)[C@@H](NC(=O)CNC(=O)[C@H](Cc1c[nH]cn1)NC(=O)C(C)(C)NC(=O)[C@@H](N)Cc1c[nH]cn1)[C@@H](C)O)[C@@H](C)O)C(=O)N[C@@H](CCC(=O)O)C(=O)N[C@@H](CO)C(=O)N[C@@H](CCCNC(=N)N)C(=O)N[C@@H](CCCNC(=N)N)C(=O)N[C@@H](C)C(=O)N[C@@H](CCCNC(=N)N)C(=O)N[C@@H](CCC(=O)O)C(=O)N[C@@H](Cc1ccccc1)C(=O)N[C@H](C(=O)N[C@@H](CCC(N)=O)C(=O)N[C@@H](Cc1c[nH]c2ccccc12)C(=O)N[C@@H](CC(C)C)C(=O)N[C@@H](CC(C)C)C(=O)N[C@@H](CCCCNC(=O)CC[C@H](NC(=O)COCCOCCNC(=O)COCCOCCNC(=O)CC[C@H](NC(=O)CC[C@H](NC(=O)CCCCCCCCCCCCCCCCC(=O)O)C(=O)O)C(=O)O)C(=O)O)C(=O)N[C@H](C(N)=O)[C@@H](C)O)C(C)C` [Example 30, N^ε28-[(4S)-4-carboxy-4-[[2-[2-[2-[[2-[2-[2-[[(4S)-4-carboxy-4-[[(4S)-4-carboxy-4-(17-carboxyheptadecanoylamino)butanoyl]amino]butanoyl]amino]ethoxy]ethoxy]acetyl]amino]ethoxy]ethoxy]acetyl]amino]butanoyl]-[Aib2,His3,Leu10,Glu15,Arg20,Glu21,Leu27,Lys28]-Glucagon amide] (H-H[Aib]HGTFTSDLSKYLESRRAREFVQWLLK([γGlu-AEEA-AEEA-γGlu-γGlu-C18 diacid])T-NH2; N-terminus assumed), the half-inhibitory concentration (IC50) turned out to be 1.4 nM.

As for `CC(C)C[C@H](NC(=O)[C@H](Cc1c[nH]c2ccccc12)NC(=O)[C@H](C)NC(=O)[C@@H](NC(=O)[C@H](Cc1ccccc1)NC(=O)[C@H](CCC(=O)O)NC(=O)[C@H](CCCNC(=N)N)NC(=O)[C@H](C)NC(=O)[C@H](CCCNC(=N)N)NC(=O)[C@H](CCCNC(=N)N)NC(=O)[C@H](CCCCNC(=O)CC[C@H](NC(=O)COCCOCCNC(=O)COCCOCCNC(=O)CC[C@H](NC(=O)CC[C@H](NC(=O)CCCCCCCCCCCCCCCCC(=O)O)C(=O)O)C(=O)O)C(=O)O)NC(=O)[C@H](CC(=O)O)NC(=O)[C@H](CC(C)C)NC(=O)[C@H](Cc1ccc(O)cc1)NC(=O)[C@H](CCCCN)NC(=O)[C@H](CO)NC(=O)[C@H](CC(C)C)NC(=O)[C@H](CC(=O)O)NC(=O)[C@H](CO)NC(=O)[C@@H](NC(=O)[C@H](Cc1ccccc1)NC(=O)[C@@H](NC(=O)CNC(=O)[C@H](CCC(N)=O)NC(=O)C(C)(C)NC(=O)[C@@H](N)Cc1c[nH]cn1)[C@@H](C)O)[C@@H](C)O)C(C)C)C(=O)N[C@@H](CC(C)C)C(=O)N[C@@H](CC(N)=O)C(=O)N[C@H](C(N)=O)[C@@H](C)O` [Example 19, N^ε29-[(4S)-4-carboxy-4-[[2-[2-[2-[[2-[2-[2-[[(4S)-4-carboxy-4-[[(4S)-4-carboxy-4-(17-carboxyheptadecanoylamino)butanoyl]amino]butanoyl]amino]ethoxy]ethoxy]acetyl]amino]ethoxy]ethoxy]acetyl]amino]butanoyl]-[Aib2,Leu10,Lys16,Arg20,Glu21,Ala24,Leu27]-Glucagon amide] (H-H[Aib]QGTFTSDLSKYLDK([γGlu-AEEA-AEEA-γGlu-γGlu-C18 diacid])RRAREFVAWLLNT-NH2; N-terminus assumed), the IC50 turned out to be 0.9 nM.

As for `CC(C)C[C@H](NC(=O)[C@H](Cc1ccc(O)cc1)NC(=O)[C@H](CCCCN)NC(=O)[C@H](CO)NC(=O)[C@H](CC(C)C)NC(=O)[C@H](CC(=O)O)NC(=O)[C@H](CO)NC(=O)[C@@H](NC(=O)[C@H](Cc1ccccc1)NC(=O)[C@@H](NC(=O)CNC(=O)[C@H](Cc1c[nH]cn1)NC(=O)C(C)(C)NC(=O)[C@@H](N)Cc1c[nH]cn1)[C@@H](C)O)[C@@H](C)O)C(=O)N[C@@H](CCC(=O)O)C(=O)N[C@@H](CO)C(=O)N[C@@H](CCCNC(=N)N)C(=O)N[C@@H](CCCNC(=N)N)C(=O)N[C@@H](C)C(=O)N[C@@H](CCCNC(=N)N)C(=O)N[C@@H](CC(=O)O)C(=O)N[C@@H](Cc1ccccc1)C(=O)N[C@H](C(=O)N[C@@H](CCC(N)=O)C(=O)N[C@@H](Cc1c[nH]c2ccccc12)C(=O)N[C@@H](CC(C)C)C(=O)N[C@@H](CC(C)C)C(=O)N[C@@H](CCCCNC(=O)CNC(=O)[C@H](CO)NC(=O)[C@H](CCC(=O)O)NC(=O)CNC(=O)[C@H](CO)NC(=O)CC[C@H](NC(=O)CC[C@H](NC(=O)CCCCCCCCCCCCCCCCC(=O)O)C(=O)O)C(=O)O)C(=O)N[C@H](C(N)=O)[C@@H](C)O)C(C)C` [Example 37, N^ε28-[2-[[(2S)-2-[[(2S)-4-carboxy-2-[[2-[[(2S)-2-[[(4S)-4-carboxy-4-[[(4S)-4-carboxy-4-(17-carboxyheptadecanoylamino)butanoyl]amino]butanoyl]amino]-3-hydroxypropanoyl]amino]acetyl]amino]butanoyl]amino]-3-hydroxypropanoyl]amino]acetyl]-[Aib2,His3,Leu10,Glu15, Arg20,Leu27,Lys28]-Glucagon amide] (I: H-H[Aib]HGTFTSDLSKYLESRRARDFVQWLLKT-NH2 / II: {C18 diacid-γGlu-γGlu}-SGESG; amide I:28-II:C; N-terminus assumed), the 50% inhibitory concentration (IC50) came to 0.2 nM.

`CC(C)C[C@H](NC(=O)[C@H](Cc1ccc(O)cc1)NC(=O)[C@H](CCCCN)NC(=O)[C@H](CO)NC(=O)[C@H](CC(C)C)NC(=O)[C@H](CC(=O)O)NC(=O)[C@H](CO)NC(=O)[C@@H](NC(=O)[C@H](Cc1ccccc1)NC(=O)[C@@H](NC(=O)CNC(=O)[C@H](CCC(N)=O)NC(=O)C1(NC(=O)[C@@H](N)Cc2c[nH]cn2)CCC1)[C@@H](C)O)[C@@H](C)O)C(=O)N[C@@H](CCC(=O)O)C(=O)N[C@@H](CO)C(=O)N[C@@H](CCCNC(=N)N)C(=O)N[C@@H](CCCNC(=N)N)C(=O)N[C@@H](C)C(=O)N[C@@H](CCCNC(=N)N)C(=O)N[C@@H](CCC(=O)O)C(=O)N[C@@H](Cc1ccccc1)C(=O)N[C@H](C(=O)N[C@@H](CCC(N)=O)C(=O)N[C@@H](Cc1c[nH]c2ccccc12)C(=O)N[C@@H](CC(C)C)C(=O)N[C@@H](CC(C)C)C(=O)N[C@@H](CCCCNC(=O)CC[C@H](NC(=O)CC[C@H](NC(=O)COCCOCCNC(=O)COCCOCCNC(=O)CC[C@H](NC(=O)CC[C@H](NC(=O)CCCCCCCCCCCCCCCCC(=O)O)C(=O)O)C(=O)O)C(=O)O)C(=O)O)C(=O)N[C@H](C(N)=O)[C@@H](C)O)C(C)C` [Example 61, N^ε28-[(4S)-4-carboxy-4-[[(4S)-4-carboxy-4-[[2-[2-[2-[[2-[2-[2-[[(4S)-4-carboxy-4-[[(4S)-4-carboxy-4-(17-carboxyheptadecanoylamino)butanoyl]amino]butanoyl]amino]ethoxy]ethoxy]acetyl]amino]ethoxy]ethoxy]acetyl]amino]butanoyl]amino]butanoyl]-[Acb2,Leu10,Glu15,Arg20,Glu21,Leu27,Lys28]-Glucagon amide] (H-H[Ac4c]QGTFTSDLSKYLESRRAREFVQWLLK([γGlu-γGlu-AEEA-AEEA-γGlu-γGlu-C18 diacid])T-NH2; N-terminus assumed): the IC50 was found to be 0.3 nM.
